Columns and labels:
[1] = tested on: HCT-116 MTAP(-/-) deficient cells; experiment: Inhibition of proliferation of HCT-116 MTAP(-/-) deficient cells (Cell-Titer Glo); type: cell-based; conditions: 8 days
Summary of the method: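 Cells in log-phase growth, RPMI-1640 with 10% FBS, seeded and left overnight at 37°C, 5% CO2. Compound tested at 0–10,000 nM (10 points, 3-fold, 0.1% DMSO) for 8 days at 37°C, 5% CO2. Viability read by CellTiter-Glo luminescence.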

[2] = tested on: HCT-116 MTAP wild-type cells; experiment: Inhibition of proliferation of HCT-116 MTAP wild-type cells (Cell-Titer Glo); type: cell-based; conditions: 8 days
Summary of the method: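 MTAP wild-type HCT-116 cells were seeded, cultured overnight and then exposed to compound from 10,000 nM down in a 10-point, 3-fold series (0.1% DMSO). Plates were incubated 8 days at 37°C, 5% CO2. Proliferation was read by Cell-Titer Glo viability luminescence.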

U87MG MTAP(-/-) cells = experiment: Inhibition of proliferation of U87MG MTAP(-/-) cells (CellTiter-Glo); type: cell-based; conditions: cell proliferation, 6 days
Procedure: Test 7: Assay for Inhibitory Activity of Compounds against U87MG MTAP(-/-) Cell Proliferation
Materials and Cells: The U87MG MTAP(-/-) cell line was purchased from ATCC (USA). Cell culture media, fetal bovine serum (FBS), and penicillin-streptomycin were purchased from Thermo Fisher Scientific (USA). 384-well plates were purchased from PerkinElmer (USA). The CellTiter-Glo assay kit was purchased from Promega (USA).
Cell Culture: U87MG MTAP(-/-) cells were cultured in a medium supplemented with 10% fetal bovine serum (FBS) and 1% penicillin-streptomycin at 37°C with 5% CO2. Only cells in the logarithmic growth phase were used for experiments.
Cell Proliferation Inhibition Assay: The antiproliferative activity of the compounds against U87MG MTAP(-/-) cells was assessed using the CellTiter-Glo assay kit. Cell suspensions were adjusted to the appropriate density and seeded into 384-well plates at a volume of 40 µL per well, then incubated overnight at 37°C with 5% CO2. Compounds (40 nL) were added to each well to achieve final concentrations ranging from 0 to 10,000 nM (starting concentration 10,000 nM, 3-fold serial dilutions, 10 dose points), with a final DMSO concentration of […]. The cell plates were incubated at 37°C with 5% CO2 for 6 days. Subsequently, 40 µL of CellTiter-Glo reagent was added to measure cell viability. Paclitaxel was used as a control compound.

[3] = Mouse pharmacokinetic experiment (IV and PO, plasma); type: in vivo, ICR male mice; conditions: male, mouse, plasma; ICR mice, PO(10mg/kg) vs IV(3mg/kg); read-out: Bioavailability F (%)
Procedure: II. Mouse Pharmacokinetic Experiment
The compounds used in this experiment are specific embodiments of the present invention, with reference to compound AMG473 as an example from Amgen's patent WO 2022/169948A1, identified as example 473.
ICR male mice, N=3/group; sourced from Zhejiang Vital River Laboratory Animal Technology Co., Ltd.
3. Drug Preparation and Administration
Single oral (PO) administration to ICR mice: Compounds were dissolved in dimethyl sulfoxide, added to polyethylene glycol 400 and sterile water, and then adjusted to a clear solution with a small amount of 1 mol/L hydrochloric acid. After overnight fasting, the mice were orally gavaged with a dose of 10 mg/kg. Single intravenous (IV) administration to ICR mice: Compounds were dissolved in dimethyl sulfoxide, added to polyethylene glycol 400 and sterile water, and then adjusted to a clear solution with a small amount of 1 mol/L hydrochloric acid. After overnight fasting, the mice received tail vein injections with a dose of 3 mg/kg.
Approximately 30 µL/time point blood samples were collected via the tail vein. Potassium ethylenediaminetetraacetate was used as an anticoagulant, and samples were centrifuged at 4000 g/min for 5 minutes at 4°C within 1 hour. Blood sampling time points were 0.0833 (IV), 0.25, 0.5, 1, 2, 4, 6, 8, 24 hours. Samples were stored in a -20°C freezer.
Plasma samples (30µL, 10µL sample + 20µL blank plasma) were mixed with 200µL ice-cold acetonitrile containing internal standards. After vortexing for 30 seconds, samples were centrifuged at 4000g/min for 20 minutes. One hundred microliters of the supernatant were transferred to a 96-well plate, followed by the addition of 200µL ultrapure water. After vortexing for 30 seconds, 5µL or 10µL were injected into LC-MS/MS for analysis. Table 7: Pharmacokinetic Data

| Molecule | IC50 ([1]; Homo sapiens, HCT-116, 192 h) [nM] | IC50 ([2]; Homo sapiens, HCT-116, 192 h) [nM] | IC50 (U87MG MTAP(-/-) cells; Homo sapiens, U-87 MG, 144 h) [nM] | bioavailability [3] [%] | IC50 [1] [nM] | IC50 [2] [nM] | IC50 (U87MG MTAP(-/-) cells) [nM] |
| --- | --- | --- | --- | --- | --- | --- | --- |
| CN(C(=O)c1ccc2nc(N)c3cncn3c2c1)C1COc2cc(S(F)(F)(F)(F)F)ccc21 (stereo not drawn) [Example 45, 4-amino-N-methyl-N-(6-(pentafluoro-λ^6-sulfaneyl)-2,3-dihydrobenzofuran-3-yl)imidaz o[1,5-a]quinoxaline-8-carboxamide] | 10.3 | 947 | 60.6 | – | – | – | – |
| Cc1ncc2c(N)nc3ccc(C(=O)N(C)[C@@H]4COc5cc(C(F)(F)F)ccc54)cc3n12 [Example 39, (S)-4-amino-N,1-dime thyl-N-(6-(trifluoromethyl)-2,3-dihydrobenzofuran-3-yl)imidazo[1 ,5-a]quinoxaline-8-carboxamide] | 15.9 | 2040 | 176 | – | – | – | – |
| CN(C(=O)c1ccc2nc(N)c3cncn3c2c1)[C@@H]1COc2cc(C(F)(F)F)ccc21 [Example 79, (S)-4-amino-N-methy 1-N-(6-(trifluoromethyl)-2,3-dihydrobenzofuran-3-yl)imidazo[1,5-a]quinoxaline-8-carbo xamide-3-d] | – | – | – | – | 5.6 | 1300 | 83.3 |
| (S)-4-amino-7-fluoro-N-methyl-N-(6-(1-me thyl-1H-pyrazol-4-yl) -2,3-dihydrobenzofura n-3-yl)imidazo[1,5-a] quinoxaline-8-carbox amide [Example 34] | – | – | – | – | 29.6 | 6570 | 179 |
| CN(C(=O)c1cc2c(cc1F)nc(N)c1cncn12)[C@@H]1COc2cc(S(C)(=O)=O)ccc21 [Example 38, (S)-4-amino-7-fluoro-N-methyl-N-(6-(methylsulfonyl)-2,3-dihydrobenzofuran-3-yl)imi dazo[1,5-a]quinoxaline-8-carboxamide] | 30 | 4060 | 443 | – | – | – | – |
| Cc1ncc(-c2ccc3c(c2)OC[C@H]3N(C)C(=O)c2cc3c(cc2F)nc(N)c2cncn23)cn1 [Example 40, (S)-4-amino-7-fluoro-N-methyl-N-(6-(2-methylpyrimidin-5-yl)-2,3-dihydrobenzofuran-3-yl)imidazo[1,5-a]qu inoxaline-8-carboxamide] | 32.1 | 9200 | 153 | – | – | – | – |
| CN(C(=O)c1ccc2nc(N)c3cncn3c2c1)[C@@H]1COc2cc(-c3cncc(C(F)(F)F)c3)ccc21 [Example 47, (S)-4-amino-N-methy 1-N-(6-(5-(trifluoromethyl)pyridin-3-yl)-2,3-dihydrobenzofuran-3-yl)imidazo[1,5-a]quin oxaline-8-carboxamide] | 17.7 | 4100 | 475 | – | – | – | – |
| (S)-4-amino-N-methyl-N-(6-(trifluoromethyl)-2,3-dihydrobenzofuran-3-yl)imidazo[1,5-a]quinoxaline-8-carboxamide-1-d [Example 78] | – | – | – | – | 7.1 | 2070 | 211 |

The next lines start with results.

| IC50 ([1]; Homo sapiens, HCT-116, 192 h) [nM] | IC50 ([2]; Homo sapiens, HCT-116, 192 h) [nM] | IC50 (U87MG MTAP(-/-) cells; Homo sapiens, U-87 MG, 144 h) [nM] | bioavailability [3] [%] | Molecule | IC50 [1] [nM] | IC50 [2] [nM] | IC50 (U87MG MTAP(-/-) cells) [nM] |
| --- | --- | --- | --- | --- | --- | --- | --- |
| 11.8 | 1220 | 74.9 | – | CCN(C(=O)c1ccc2nc(N)c3cncn3c2c1)[C@@H]1COc2cc(C(F)(F)F)ccc21 [Example 55, (S)-4-amino-N-ethyl-N-(6-(trifluoromethyl) -2,3-dihydrobenzofuran-3-yl)imidazo[1,5-a] quinoxaline-8-carbox amide] | – | – | – |
| 50.6 | > 10000 | 777 | – | COC(=O)c1ccc2c(c1)OC[C@H]2N(C)C(=O)c1ccc2nc(N)c3cncn3c2c1 [Example 122, methyl (S)-3-(4-amino-N-methylimidazo[1,5-a]quinoxaline-8-carboxamido)-2,3-dihydrobenzofuran-6-carboxylate] | – | – | – |
| 5.8 | 1290 | – | 77.5 | CN(C(=O)c1ccc2nc(N)c3cncn3c2c1)[C@@H]1COc2cc(C(F)(F)C(F)(F)F)ccc21 [Example 130, (S)-4-amino-N-methy 1-N-(6-(perfluoroethyl)-2,3-dihydrobenzofuran-3-yl)imidazo[1,5-a]quinoxaline-8-carbox amide] | – | – | – |
| 15.9 | 1530 | 108 | – | CN(C(=O)c1ccc2nc(N)c3cncn3c2c1)[C@@H]1COc2cc(OC(F)(F)F)ccc21 [Example 56, (S)-4-amino-N-methy 1-N-(6-(trifluoromethoxy)-2,3-dihydrobenzofuran-3-yl)imidazo[1,5-a]quinoxaline-8-car boxamide] | – | – | – |
| 6.5 | 634 | 64.4 | – | CCN(C(=O)c1cc2c(cc1F)nc(N)c1cncn12)[C@@H]1COc2cc(C(F)(F)F)ccc21 [Example 124, (S)-4-amino-N-ethyl-7-fluoro-N-(6-(trifluor omethyl)-2,3-dihydrobenzofuran-3-yl)imid azo[1,5-a]quinoxaline-8-carboxamide] | – | – | – |
| 7.3 | 1170 | 72.1 | – | [2H]C([2H])([2H])N(C(=O)c1cc2c(cn1)nc(N)c1cncn12)[C@@H]1COc2cc(C(F)(F)F)ccc21 [Example 75, (S)-4-amino-N-(methyl-d3)-N-(6-(trifluoromethyl)-2,3-dihydrobenzofuran-3-yl)imidazo[1,5-a]pyrido[3,4-e]pyrazine-8-carb oxamide] | – | – | – |
| 6.6 | 617 | 61.3 | – | CN(C(=O)c1cc2c(cc1F)nc(N)c1cncn12)[C@@H]1COc2cc(-c3ccnn3C)ccc21 [Example 117, (S)-4-amino-7-fluoro-N-methyl-N-(6-(1-methyl-1H-pyrazol-5-yl) -2,3-dihydrobenzofuran-3-yl)imidazo[1,5-a] quinoxaline-8-carbox amide] | – | – | – |

Reference: patent publication EP4775208A1, “USE OF PRMT5 INHIBITOR IN TREATMENT OF TUMORS OR CANCERS” (Apeiron Therapeutics (Hong Kong) Ltd., priority 2023, dated 2025)
